Data reported in article PMC10726352, “Discovery of KB-0742, a Potent, Selective, Orally Bioavailable Small Molecule Inhibitor of CDK9 for MYC-Dependent Cancers” (Journal of Medicinal Chemistry, 2023).
Values joined by “and” are separate entries in the source; they are usually repeats but may differ in a detail not shown here. Identical values can stand only once. Each block holds one compound with its values, some of them ahead of it.

Tests used:
MDA-MB-231 = experiment: OncoPanel Multiplexed Cytotoxicity Assay; type: cell-based
MT-3 = experiment: OncoPanel Multiplexed Cytotoxicity Assay; type: cell-based
BT-20 = experiment: OncoPanel Multiplexed Cytotoxicity Assay; type: cell-based
Hs 578T = experiment: OncoPanel Multiplexed Cytotoxicity Assay; type: cell-based
BT-549 = experiment: OncoPanel Multiplexed Cytotoxicity Assay; type: cell-based
Microsome stability [1] = conditions: rat
Microsome stability [2] = conditions: dog
in vitro [3] = conditions: mouse, rat, dog, human, microsomes and hepatocytes
in vitro [4] = conditions: dog, hepatocytes
Plasma protein binding [5] = conditions: human
LogD = type: physicochemical; conditions: pH = 7.4
Pharmacokinetics [6] = type: in vivo; conditions: rat
Plasma protein binding [7] = conditions: dog
Microsome stability [8] = conditions: human
Plasma protein binding [9] = conditions: rat
in vitro [10] = conditions: mouse, hepatocytes
[11] = Projection of human PK parameters
Plasma protein binding [12] = conditions: mouse
in vitro [13] = conditions: rat, hepatocytes
Microsome stability [14] = conditions: mouse
Pharmacokinetics [15] = type: in vivo; conditions: mouse
in vitro [16] = conditions: human, hepatocytes
[17] = Plasma concentration in CTG-1017 tumor-bearing mice; type: in vivo; conditions: Athymic Nude-Foxn1nu, mouse, po, 60 mg/kg p.o.
Pharmacokinetics [18] = type: in vivo; conditions: dog

Structure (SMILES): CN[C@@H]1C[C@H]2O[C@@](C)([C@@H]1OC)n1c3ccccc3c3c4c(c5c6ccccc6n2c5c31)C(=O)NC4 [Staurosporine]
Apoptosis Emax (MDA-MB-231): 5.32 | Cell Count Activity Area (MDA-MB-231): 5.26 | IC50 (MDA-MB-231; Homo sapiens, MDA-MB-231, 72 h, read-out: Cell count IC50): 1.69 nM | G1/S cell cycle block (MDA-MB-231; MDA-MB-231, 72 h): 0.0122 µM | Apoptosis Emax (MT-3): 10.32 | G1/S cell cycle block (MT-3; MT-3, 72 h): 0.0273 µM | GI50 (MT-3; MT-3, 72 h, read-out: Cell count GI50): 9.39 nM | Apoptosis Emax (BT-20): 4.6 | Cell Count Activity Area (BT-20): 2.58 | G1/S cell cycle block (BT-20; BT-20, 72 h): 0.00581 µM | EC50 (BT-20; Homo sapiens, BT-20, 72 h, read-out: Cell Count EC50): 31.6 nM | GI50 (BT-20; Homo sapiens, BT-20, 72 h, read-out: Cell count GI50): 23.6 nM | Apoptosis Emax (Hs 578T): 6.48 | Cell Count Activity Area (Hs 578T): 4.99 | GI50 (Hs 578T; Homo sapiens, Hs-578T, 72 h, read-out: Cell count GI50): 1.45 nM | G1/S cell cycle block (Hs 578T; Hs 578T, 72 h): 0.000753 µM | Apoptosis Emax (BT-549): 6.9 | Cell Count Activity Area (BT-549): 4.39 | G1/S cell cycle block (BT-549; BT-549, 72 h): 0.00531 µM | GI50 (BT-549; Homo sapiens, BT-549, 72 h, read-out: Cell count GI50): 5.56 nM

Microsome stability (Microsome stability [1]): 81.3 % remaining 180 min | Microsome stability (Microsome stability [2]): 68.8 % remaining 180 min | half-life (in vitro [3]): ≥ 120 min | CLint scaled (in vitro [4]): 38 mL/min/kg | half-life (in vitro [4]): 195 min | PPB (Plasma protein binding [5]): 38 % bound | logD (LogD): 0.9 | T1/2 (i.v.) (Pharmacokinetics [6]; i.v. 2.0 mg/kg): 2.4 h | AUC (p.o.) (Pharmacokinetics [6]; p.o. 10 mg/kg): 3591 ng·h/mL | Cmax (p.o.) (Pharmacokinetics [6]; p.o. 10 mg/kg): 411 ng/mL | PPB (Plasma protein binding [7]): 72 % bound | Microsome stability (Microsome stability [8]): 92.5 % remaining 180 min | PPB (Plasma protein binding [9]): 41 % bound | CLint scaled (in vitro [10]): 44 mL/min/kg | mean predicted human Vd,ss ([11]; 70 kg body weight, IVIVE and allometry): 6.0 L/kg | predicted human oral bioavailability ([11]; derived from nonclinical species): 75% | half-life ([11]; human, plasma, one-compartment, read-out: estimated human terminal half-life (converted)): ~2100 min | PPB (Plasma protein binding [12]): 48 % bound | CLint scaled (in vitro [13]): 62 mL/min/kg | half-life (in vitro [13]): 118 min | Microsome stability (Microsome stability [14]): 87.4 % remaining 180 min | Vd,ss (i.v.) (Pharmacokinetics [15]; i.v. 1.0 mg/kg): 3.9 L/kg | AUC (p.o.) (Pharmacokinetics [15]; p.o. 20 mg/kg): 1700 ng·h/mL | Cmax (p.o.) (Pharmacokinetics [15]; p.o. 20 mg/kg): 501 ng/mL | CLint scaled (in vitro [16]): 1.6 mL/min/kg | half-life (in vitro [16]): 2340 min | concentration at 2 h ([17]; 2 h post-dose): 846 ng/mL and 2.9 µM | concentration at 8 h ([17]; 8 h post-dose): 73 ng/mL and 250 nM | T1/2 (i.v.) (Pharmacokinetics [18]; i.v. 0.50 mg/kg): 4.7 h | Vd,ss (i.v.) (Pharmacokinetics [18]; i.v. 0.50 mg/kg): 4.5 L/kg | F (Pharmacokinetics [18]; p.o. […]): >100% | CLint scaled (Pharmacokinetics [18]; plasma, iv, 0.5 mg/kg, i.v. 0.50 mg/kg): 13.4 mL/min/kg
Structure (SMILES): CCC(CC)c1cc(N[C@H]2CC[C@H](N)C2)n2nccc2n1 [Compound 28, [(1S,3S)-3-[[5-(1-Ethylpropyl)pyrazolo[1,5-a]pyrimidin-4-ium-7-yl]amino]cyclopentyl]ammonium Dichloride]
